Usually pIC50 stands for the IC50 on a negative log10 scale, so that one unit is a factor of ten.

pIC50: −log10 of the molar value.

This assay deals with T1, recombinant human GR (Homo sapiens, UniProt P04150).
T1 construct: purchased Panvera/Invitrogen P2812 (kit P2893)
T1 sequence (P04150 1-777): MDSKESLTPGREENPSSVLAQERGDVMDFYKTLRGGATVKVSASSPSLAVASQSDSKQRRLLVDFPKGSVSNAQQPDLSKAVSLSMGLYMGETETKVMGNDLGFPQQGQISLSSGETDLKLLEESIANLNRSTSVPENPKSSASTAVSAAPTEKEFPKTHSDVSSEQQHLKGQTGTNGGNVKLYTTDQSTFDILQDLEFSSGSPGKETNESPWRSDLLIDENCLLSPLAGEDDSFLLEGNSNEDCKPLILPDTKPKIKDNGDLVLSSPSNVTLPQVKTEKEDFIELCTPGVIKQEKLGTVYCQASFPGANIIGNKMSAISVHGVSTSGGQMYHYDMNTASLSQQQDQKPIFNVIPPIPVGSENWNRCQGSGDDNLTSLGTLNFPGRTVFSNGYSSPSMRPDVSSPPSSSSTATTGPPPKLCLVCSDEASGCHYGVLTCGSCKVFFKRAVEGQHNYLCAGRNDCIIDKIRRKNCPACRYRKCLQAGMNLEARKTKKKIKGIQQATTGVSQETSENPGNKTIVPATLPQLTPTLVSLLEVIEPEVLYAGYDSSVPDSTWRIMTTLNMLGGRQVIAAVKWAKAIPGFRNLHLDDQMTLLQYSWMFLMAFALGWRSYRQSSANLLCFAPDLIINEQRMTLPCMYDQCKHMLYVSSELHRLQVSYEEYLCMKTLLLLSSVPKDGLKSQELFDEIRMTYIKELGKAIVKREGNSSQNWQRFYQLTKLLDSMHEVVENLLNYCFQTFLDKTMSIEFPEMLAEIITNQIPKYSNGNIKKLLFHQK
Nature of the assay: Human Glucocorticoid Receptor (GR) Assay (fluorescence polarization competition, Panvera/Invitrogen kit). The following applies: GS Red Fluoromone tracer, 2 hours at room temperature, 100% control 10 μM Dexamethasone, read-out: Inhibition of GR binding, IC50. How it is done: Human Glucocorticoid Receptor (GR) Assay The assay is based on a commercial kit from Panvera/Invitrogen (Part number P2893). The assay technology is fluorescence polarization. The kit utilises recombinant human GR (Panvera, Part number P2812), a Fluoromone™ labelled tracer (GS Red, Panvera, Part number P2894) and a Stabilizing Peptide 10× (Panvera, Part number P2815). The GR and Stabilizing Peptide reagents are stored at −70° C. while the GS Red is stored at −20° C. Also included in the kit are 1M DTT (Panvera, Part number P2325, stored at −20° C.) and GR Screening buffer 10× (Panvera, Part number P2814, stored at −70° C. initially but once thawed stored at room temperature). Avoid repeated freeze/thaws for all reagents. The GR Screening buffer 10× comprises 100 mM potassium phosphate, 200 mM sodium molybdate, 1 mM EDTA and 20% DMSO. Test compounds (1 μL) and controls (1 μL) in 100% DMSO were added to black is polystyrene 384-well plates (Greiner low volume black flat-bottom, part number 784076). 0% control was 100% DMSO and 100% control was 10 μM Dexamethasone. Background solution (8 μL; assay buffer 10×, Stabilizing Peptide, DTT and ice cold MQ water) was added to the background wells. GS Red solution (7 μL; assay buffer 10×, Stabilizing Peptide, DTT, GS Red and ice cold water) was added to all wells except background wells. GR solution (7 μL; assay buffer 10×, Stabilizing Peptide, DTT, GR and ice cold water) was added to all wells. The plate was sealed and incubated in a dark at room temperature for 2 hours. The plate was read in an Analyst plate reader (LJL Biosystems/Molecular Devices Corporation) or other similar plate reader capable of recording fluorescence polarization (excitation wavelength 530 nm, emission wavelength 590 nm and a dichroic mirror at 561 nm).
Background: Polarisation of emitted light reports the rotation of a fluorescent probe.
Turning to `C[C@]12Cc3cnn(-c4ccc(F)nc4)c3C=C1CC[C@H]1[C@@H]3CC[C@](OC(=O)C4CCOC4)(C(=O)SCF)[C@@]3(C)C[C@H](O)[C@@]12F` (single isomer, unassigned) [16 (R)/(S) isomer], the pIC50 was 9.36.
For the compound `CCC(=O)O[C@]1(C(=O)SCF)CC[C@H]2[C@@H]3C[C@H](C)C4=Cc5c(cnn5-c5ccc(F)nc5)C[C@]4(C)[C@H]3[C@@H](O)C[C@@]21C` [Example 7, (1R,3aS,3bS,5S,10aR,10bS,11S,12aS)-1-{[(Fluoromethyl)sulfanyl]carbonyl}-7-(6-fluoropyridin-3-yl)-11-hydroxy-5,10a,12a-trimethyl-1,2,3,3a,3b,4,5,7,10,10a,10b,11,12,12a-tetradecahydrocyclopenta[5,6]naphtho[1,2-f]indazol-1-yl propanoate], the pIC50 was 8.72.
`CCC(=O)O[C@]1(C(=O)SCF)[C@H](C)C[C@H]2[C@@H]3CCC4=Cc5c(cnn5-c5ccc(F)cc5)C[C@]4(C)[C@@]3(F)[C@@H](O)C[C@@]21C` [Example 5, (1R,2R,3aS,3bS,10aS,10bR,11S,12aS)-10b-Fluoro-1-{[(fluoromethyl)sulfanyl]carbonyl}-7-(4-fluorophenyl)-11-hydroxy-2,10a,12a-trimethyl-1,2,3,3a,3b,4,5,7,10,10a,10b,11,12,12a-tetradecahydrocyclopenta[5,6]naphtho[1,2-f]indazol-1-yl propanoate]: the pIC50 was 7.96.
In the case of `C[C@]12Cc3cnn(-c4ccc(F)cc4)c3C=C1CC[C@@H]1[C@@H]2[C@@H](O)C[C@@]2(C)[C@H]1CC[C@]2(OC(=O)C1CCCO1)C(=O)SCCO` (single isomer, unassigned) [Example 18], the negative-log IC50 (pIC50) is 8.51.
`C[C@]12Cc3cnn(-c4ccc(F)nc4)c3C=C1CC[C@H]1[C@@H]3CC[C@](OC(=O)[C@H]4CCCO4)(C(=O)SCF)[C@@]3(C)C[C@H](O)[C@@]12F` [Example 13, (1R,3aS,3bS,10aS,10bR,11S,12aS)-10b-Fluoro-1-{[(fluoromethyl)sulfanyl]carbonyl}-7-(6-fluoropyridin-3-yl)-11-hydroxy-10a,12a-dimethyl-1,2,3,3a,3b,4,5,7,10,10a,10b,11,12,12a-tetradecahydrocyclopenta[5,6]naphtho[1,2-f]indazol-1-yl (2R)-tetrahydrofuran-2-carboxylate]: the pIC50 was 9.01.
On to `C[C@H]1C[C@@H]2[C@H]([C@@H](O)C[C@@]3(C)[C@H]2CC[C@]3(OC(=O)C2CC2)C(=O)SCF)[C@@]2(C)Cc3cnn(-c4ccc(F)nc4)c3C=C12` [Example 25, (1R,3aS,3bS,5S,10aR,10bS,11S,12aS)-1-{[(Fluoromethyl)sulfanyl]carbonyl}-7-(6-fluoropyridin-3-yl)-11-hydroxy-5,10a,12a-trimethyl-1,2,3,3a,3b,4,5,7,10,10a,10b,11,12,12a-tetradecahydrocyclopenta[5,6]naphtho[1,2-f]indazol-1-yl cyclopropanecarboxylate], for which the pIC50 is 8.92.
On to `C[C@]12Cc3cnn(-c4ccc(F)nc4)c3C=C1CC[C@H]1[C@@H]3CC[C@](OC(=O)[C@H]4CCCO4)(C(=O)SCC#N)[C@@]3(C)C[C@H](O)[C@@]12F` [Example 12, (1R,3aS,3bS,10aS,10bR,11S,12aS)-1-{[(Cyanomethyl)sulfanyl]carbonyl}-10b-fluoro-7-(6-fluoropyridin-3-yl)-11-hydroxy-10a,12a-dimethyl-1,2,3,3a,3b,4,5,7,10, 10a,10b,11,12,12a-tetradecahydrocyclopenta[5,6]naphtho[1,2-f]indazol-1-yl (2R)-tetrahydrofuran-2-carboxylate], for which the pIC50 was 9.00.
On to `C[C@]12Cc3cnn(-c4ccc(F)nc4)c3C=C1CC[C@H]1[C@@H]3CC[C@](OC(=O)C4CCOC4)(C(=O)SCF)[C@@]3(C)C[C@H](O)[C@@]12F` (mixture of isomers) [Example 16 (racemate), (1R,3aS,3bS,10aS,10bR,11S,12aS)-10b-Fluoro-1-{[(fluoromethyl)sulfanyl]carbonyl}-7-(6-fluoropyridin-3-yl)-11-hydroxy-10a,12a-dimethyl-1,2,3,3a,3b, 4,5,7,10,10a,10b,11,12,12a-tetradecahydrocyclopenta[5,6]naphtho[1,2-f]indazol-1-yl tetrahydrofuran-3-carboxylate], for which the pIC50 was 9.28.
Then `CCC(=O)O[C@]1(C(=O)SCF)[C@H](C)C[C@H]2[C@@H]3CCC4=Cc5c(cnn5-c5ccc(F)nc5)C[C@]4(C)[C@@]3(F)[C@@H](O)C[C@@]21C` [Example 2, (1R,2R,3aS,3bS,10aS,10bR,11S,12aS)-10b-Fluoro-1-{[(fluoromethyl)sulfanyl]carbonyl}-7-(6-fluoropyridin-3-yl)-11-hydroxy-2,10a,12a-trimethyl-1,2,3,3a,3b,4,5,7,10,10a,10b,11,12,12a-tetradecahydrocyclopenta[5,6]naphtho[1,2-f]indazol-1-yl propanoate], with 8.72.
The value for `CCC(=O)O[C@]1(C(=O)SCC#N)[C@H](C)C[C@H]2[C@@H]3CCC4=Cc5c(cnn5-c5ccc(F)nc5)C[C@]4(C)[C@@]3(F)[C@@H](O)C[C@@]21C` [Example 3, (1R,2R,3aS,3bS,10aS,10bR,11S,12aS)-1-{[(Cyanomethyl)sulfanyl]carbonyl}-10b-fluoro-7-(6-fluoropyridin-3-yl)-11-hydroxy-2,10a,12a-trimethyl-1,2,3,3a,3b,4,5,7,10,10a,10b,11,12,12a-tetradecahydrocyclopenta[5,6]naphtho[1,2-f]indazol-1-yl propanoate] was 8.80; that for `CCC(=O)O[C@]1(C(=O)SCC#N)CC[C@H]2[C@@H]3C[C@H](C)C4=Cc5c(cnn5-c5ccc(F)nc5)C[C@]4(C)[C@H]3[C@@H](O)C[C@@]21C` [Example 23, (1R,3aS,3bS,5S,10aR,10bS,11S,12aS)-1-{[(Cyanomethyl)sulfanyl]carbonyl}-7-(6-fluoropyridin-3-yl)-11-hydroxy-5,10a,12a-trimethyl-1,2,3,3a,3b,4,5,7,10,10a,10b,11,12,12a-tetradecahydrocyclopenta[5,6]naphtho[1,2-f]indazol-1-yl propanoate] was 9.00.
For the compound `C[C@]12Cc3cnn(-c4ccc(F)nc4)c3C=C1CC[C@H]1[C@@H]3CC[C@](OC(=O)C4CCOC4)(C(=O)SCC#N)[C@@]3(C)C[C@H](O)[C@@]12F` (single isomer, unassigned) [15 (S)/(R) isomer], the pIC50 was 9.24.
`C[C@]12Cc3cnn(-c4ccc(F)nc4)c3C=C1CC[C@H]1[C@@H]3CC[C@](OC(=O)C4CCOC4)(C(=O)SCC#N)[C@@]3(C)C[C@H](O)[C@@]12F` (single isomer, unassigned) [15 (R)/(S) isomer]: the negative logarithm of the IC50 (pIC50) is 9.24.
The value for `C[C@]12Cc3cnn(-c4ccc(F)nc4)c3C=C1CC[C@H]1[C@@H]3CC[C@](OC(=O)C4CCOC4)(C(=O)SCC#N)[C@@]3(C)C[C@H](O)[C@@]12F` (mixture of isomers) [Example 15 (racemate), (1R,3aS,3bS,10aS,10bR,11S,12aS)-1-{[(Cyanomethyl)sulfanyl]carbonyl}-10b-fluoro-7-(6-fluoropyridin-3-yl)-11-hydroxy-10a,12a-dimethyl-1,2,3,3a,3b,4,5,7,10,10a,10b,11,12,12a-tetradecahydrocyclopenta[5,6]naphtho[1,2-f]indazol-1-yl tetrahydrofuran-3-carboxylate] was 9.26.

Source of the values: US8338587B2, “Compounds” (AstraZeneca AB, priority 2009, dated 2012).
